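These data come from cells grown in 96-well plates and exposed to compound for 48 hours at five concentrations. GI50 is the concentration that inhibits growth by half.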 Active and inactive are the calls of the source. Cut-off read from the data, not from the text of the source: active = GI50 up to about 1.1 µM and inactive = higher.
Legend:
Experiment in all cases: NCI-60 cell line screen, 48 h
OVCAR-3 = system: OVCAR-3
SK-OV-3 = system: SK-OV-3
HOP-92 = system: HOP-92
NCI-H23 = system: NCI-H23
LOX IMVI = system: LOX IMVI
786-0 = system: 786-0
EKVX = system: EKVX
SW-620 = system: SW-620
U-251 = system: U-251
OVCAR-4 = system: OVCAR-4
HCT-116 = system: HCT-116
BT-549 = system: BT-549
Hs-578T = system: Hs-578T
MCF7 = system: MCF7
SF-268 = system: SF-268
ACHN = system: ACHN
SR = system: SR
HOP-62 = system: HOP-62
A498 = system: A498
RXF 393 = system: RXF 393

Measured: GI50

O=C(Cc1ccccc1)N/N=C/c1ccccc1O
inactive: OVCAR-3 3.36 µM | SK-OV-3 15.9 µM | HOP-92 9.14 µM | NCI-H23 17.8 µM | LOX IMVI 9.42 µM | 786-0 6.14 µM | EKVX 5.28 µM | SW-620 19.3 µM | U-251 19.5 µM | OVCAR-4 15.7 µM | HCT-116 7.55 µM | BT-549 27.9 µM | Hs-578T 36.1 µM | MCF7 3.94 µM | SF-268 8.57 µM | ACHN 5.15 µM | SR 5.52 µM

C=CC(=O)N1C/C(=C\c2ccc(N(C)C)cc2)C(=O)/C(=C/c2ccc(N(C)C)cc2)C1
inactive: OVCAR-3 41.3 µM | HOP-92 > 100 µM | NCI-H23 > 100 µM | LOX IMVI 11.2 µM | 786-0 42.1 µM | EKVX > 100 µM | SW-620 40.8 µM | HOP-62 > 100 µM | U-251 > 100 µM | OVCAR-4 > 100 µM | HCT-116 40.6 µM | BT-549 73.5 µM | Hs-578T 30 µM | MCF7 4.73 µM | SF-268 67.3 µM | A498 > 100 µM | RXF 393 43.1 µM | ACHN > 100 µM

CC(=O)c1c(C)n(C)c2c1nnc1ccccc12
inactive: OVCAR-3 > 100 µM | SK-OV-3 32.8 µM | HOP-92 43.9 µM | NCI-H23 37.5 µM | LOX IMVI 43 µM | 786-0 36 µM | EKVX 12.8 µM | SW-620 44.5 µM | HOP-62 55.2 µM | U-251 49.4 µM | OVCAR-4 > 100 µM | HCT-116 33.7 µM | BT-549 71.3 µM | Hs-578T 32.6 µM | MCF7 26.5 µM | SF-268 34.1 µM | A498 21.1 µM | RXF 393 40.2 µM | ACHN 34.4 µM

O=c1oc2ccc([N+](=O)[O-])cc2c(Nc2ccc3c(c2)Sc2ccccc2O3)c1[N+](=O)[O-]
inactive: OVCAR-3 15.9 µM | SK-OV-3 24 µM | HOP-92 16.3 µM | NCI-H23 18.6 µM | LOX IMVI 20 µM | 786-0 20.3 µM | EKVX 25.9 µM | SW-620 30.3 µM | HOP-62 21.3 µM | U-251 17.5 µM | OVCAR-4 32.3 µM | HCT-116 15.8 µM | BT-549 24 µM | Hs-578T 37 µM | MCF7 22.1 µM | SF-268 27.5 µM | RXF 393 22.4 µM | ACHN 27 µM | SR 22.5 µM

CC1(C)S[C@@H]2[C@H](NC(=O)/C=C/c3ccccc3)C(=O)N2[C@H]1C(=O)O
inactive: OVCAR-3 > 100 µM | SK-OV-3 > 100 µM | HOP-92 > 100 µM | NCI-H23 > 100 µM | LOX IMVI > 100 µM | 786-0 > 100 µM | SW-620 > 100 µM | HOP-62 > 100 µM | U-251 > 100 µM | OVCAR-4 > 100 µM | HCT-116 > 100 µM | BT-549 > 100 µM | Hs-578T > 100 µM | MCF7 > 100 µM | SF-268 > 100 µM | ACHN > 100 µM | SR > 100 µM

N#Cc1nc(/C=C/c2nc(C#N)c(N)o2)oc1N
inactive: SK-OV-3 > 10 µM | HOP-92 > 10 µM | NCI-H23 > 10 µM | LOX IMVI > 10 µM | 786-0 > 10 µM | EKVX > 10 µM | SW-620 > 10 µM | HOP-62 > 10 µM | OVCAR-4 > 10 µM | HCT-116 > 10 µM | BT-549 > 10 µM | Hs-578T > 10 µM | MCF7 > 10 µM | SF-268 > 10 µM | RXF 393 > 10 µM | ACHN > 10 µM | SR > 10 µM

COc1c(C)c(C/C=C(\C)CC/C=C(\C)CC/C=C(\C)CC/C=C(\C)CCC=C(C)C)c(OC)c(OC)c1OC
inactive: OVCAR-3 > 100 µM | SK-OV-3 > 100 µM | HOP-92 15.6 µM | NCI-H23 17.6 µM | LOX IMVI 17.1 µM | 786-0 16.9 µM | EKVX 44.4 µM | SW-620 97.7 µM | HOP-62 15.6 µM | U-251 79.6 µM | OVCAR-4 19.9 µM | HCT-116 58.3 µM | BT-549 85.1 µM | Hs-578T > 100 µM | MCF7 51.1 µM | SF-268 18.6 µM | RXF 393 17.4 µM | ACHN 16.4 µM | SR 22.9 µM
